Measured values reported in patent US20240115557A1, “INHIBITORS OF RNA-GUIDED NUCLEASES AND USES THEREOF” (The Brigham and Women's Hospital, Inc., priority 2022, published 2024).

Target: T1, SaCas9 (Staphylococcus aureus, UniProt J7RUA5)
T1 sequence (J7RUA5 1-1053): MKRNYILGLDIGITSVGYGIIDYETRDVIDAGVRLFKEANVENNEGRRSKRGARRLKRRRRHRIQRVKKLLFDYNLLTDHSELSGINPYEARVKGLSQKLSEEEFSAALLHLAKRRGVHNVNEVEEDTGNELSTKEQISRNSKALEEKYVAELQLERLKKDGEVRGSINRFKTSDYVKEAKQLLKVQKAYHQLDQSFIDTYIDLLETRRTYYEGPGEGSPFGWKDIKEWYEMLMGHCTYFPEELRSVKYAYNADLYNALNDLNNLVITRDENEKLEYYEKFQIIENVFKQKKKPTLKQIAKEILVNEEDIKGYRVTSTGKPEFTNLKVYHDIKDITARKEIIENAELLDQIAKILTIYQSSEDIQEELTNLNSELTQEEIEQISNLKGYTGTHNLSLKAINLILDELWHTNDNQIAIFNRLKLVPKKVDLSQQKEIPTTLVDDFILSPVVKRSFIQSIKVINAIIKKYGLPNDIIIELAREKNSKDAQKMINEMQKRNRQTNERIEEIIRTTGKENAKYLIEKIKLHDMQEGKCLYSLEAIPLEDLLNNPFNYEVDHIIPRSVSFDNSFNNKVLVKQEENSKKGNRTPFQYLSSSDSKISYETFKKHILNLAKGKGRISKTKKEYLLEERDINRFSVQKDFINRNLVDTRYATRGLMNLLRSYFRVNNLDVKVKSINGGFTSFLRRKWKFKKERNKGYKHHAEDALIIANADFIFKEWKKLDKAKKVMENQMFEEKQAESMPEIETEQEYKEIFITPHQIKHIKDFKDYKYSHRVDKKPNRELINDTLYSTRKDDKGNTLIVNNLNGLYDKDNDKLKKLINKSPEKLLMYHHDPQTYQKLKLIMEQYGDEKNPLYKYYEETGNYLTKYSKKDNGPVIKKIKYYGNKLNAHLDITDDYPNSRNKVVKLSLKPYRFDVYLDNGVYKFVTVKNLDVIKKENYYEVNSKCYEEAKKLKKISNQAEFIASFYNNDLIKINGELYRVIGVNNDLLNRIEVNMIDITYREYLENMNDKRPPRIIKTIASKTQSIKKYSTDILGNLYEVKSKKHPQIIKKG
Assay: Strand displacement assay, SaCas9 primary screen
Format: biochemical
Conditions: for Auto Zscore Rep 1 / Auto Zscore Rep 2 / Normalized Zscore Rep 1 / Normalized Zscore Rep 2: SaCas9 primary screen; for Auto Zscore Rep 1 / Normalized Zscore Rep 1: replicate 1; for Auto Zscore Rep 2 / Normalized Zscore Rep 2: replicate 2; for Normalized Zscore Rep 1 / Normalized Zscore Rep 2: weaker potential hits; for 3 sigma Hit: flag 1 = hit at 3 sigma; for 5 sigma Hit: flag 1 = hit at 5 sigma
Summary of the method: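 Cas9 RNP (1:1.2 protein:gRNA) pre-formed in 20 mM Tris-HCl pH 7.5, 100 mM KCl, 5 mM MgCl2, used at 10 nM (2× stock) with Alexa-Fluor 647 substrate/quencher at 1 nM/5 nM (2× stock). Reaction ran 2.5 h at 37°C; strand displacement read as fluorescence. Hits called by Z-score: 3–5σ weak, >5σ strong.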

| SMILES | Auto Zscore Rep 1 | Auto Zscore Rep 2 | Normalized Zscore Rep 1 | Normalized Zscore Rep 2 | 3 sigma Hit | 5 sigma Hit |
| --- | --- | --- | --- | --- | --- | --- |
| Nc1c(C(=O)NCC2CCCO2)sc(=S)n1-c1ccc(Cl)cc1 (stereo not drawn) [Compound F128-0076] | −0.6285 | −1.451 | 0.3168 | 0.2064 | 1 | 1 |
| O=C(O)c1ccc(N2CCN(c3ccccn3)CC2)c(NC(=O)c2ccc(Br)cc2)c1 [Compound F086-0619] | 1.213 | 0.1224 | 0.2335 | 0.1451 | 1 | 1 |
